Results as given in publication PMC11704350 (2025).

Tests used:
[1] = system: Nrf2C (DNA, i motif) CCCTCCCGCCCTTGCTCCCTTCCC; test: fluorescent indicator displacement; details: 100 mM KCl, 10 mM sodium cacodylate pH 6.5, room temperature, thiazole orange displaced
[2] = system: DAPC (DNA, i motif) CCCCCGCCCCCGCCCCCGCCCCCGCCCCC; test: UV titration (ligand absorbance); details: 100 mM KCl, 10 mM sodium cacodylate pH 6.5, DNA up to 50 µM
[3] = system: DAPG (DNA, G4) GGGGGCGGGGGCGGGGGCGGGGGCGGGGG; test: UV titration (ligand absorbance); details: 100 mM KCl, 10 mM sodium cacodylate pH 6.5, DNA up to 50 µM
[4] = system: DS (DNA, duplex) GGCATAGTGCGTGGGCGTTAGC/GCTAACGCCCACGCACTATGCC; test: UV titration (ligand absorbance); details: 100 mM KCl, 10 mM sodium cacodylate pH 6.5, DNA up to 50 µM
[5] = system: Nrf2G (DNA, G4) GGGAAGGGAGCAAGGGCGGGAGGG; test: UV titration (ligand absorbance); details: 100 mM KCl, 10 mM sodium cacodylate pH 6.5, DNA up to 50 µM
[6] = system: hTeloC (DNA, i motif) TAACCCTAACCCTAACCCTAACCC; test: UV titration (ligand absorbance); details: 100 mM KCl, 10 mM sodium cacodylate pH 6.5, DNA up to 50 µM
[7] = system: DS (DNA, duplex) GGCATAGTGCGTGGGCGTTAGC/GCTAACGCCCACGCACTATGCC; test: CD melting (253 nm); details: 100 mM KCl; 10 mM sodium cacodylate pH 6.5; 50 µM ligand, 10 µM DNA
[8] = system: hTeloG (DNA, G4) GGGTTAGGGTTAGGGTTAGGGTTA; test: UV titration (ligand absorbance); details: 100 mM KCl, 10 mM sodium cacodylate pH 6.5, DNA up to 50 µM
[9] = system: Nrf2C (DNA, i motif) CCCTCCCGCCCTTGCTCCCTTCCC; test: UV titration (ligand absorbance); details: 100 mM KCl, 10 mM sodium cacodylate pH 6.5, DNA up to 50 µM
[10] = system: Nrf2G (DNA, G4) GGGAAGGGAGCAAGGGCGGGAGGG; test: CD melting (264 nm); details: 100 mM KCl, 10 mM sodium cacodylate pH 6.5, 50 µM ligand, 10 µM DNA
[11] = system: Nrf2C (DNA, i motif) CCCTCCCGCCCTTGCTCCCTTCCC; test: CD melting (288 nm); details: 100 mM KCl; 10 mM sodium cacodylate pH 6.5; 50 µM ligand, 10 µM DNA
[12] = 0.5 µM DNA (legend; methods 1 µM)

A DC50 [1, 12] of 3.2 ± 0.1 µM was found for `Clc1c(Cl)c(Cl)c2[nH]nnc2c1Cl` in this work.

A Kd ([2]; ligand monitored at 320 nm) of 0.9 ± 0.1 µM, a Kd ([3]; ligand monitored at 320 nm) of 1.6 ± 0.2 µM and a Kd ([4]; ligand monitored at 320 nm) of 1.9 ± 0.1 µM were found for `O=C(Nc1ccc(Nc2ccncc2)cc1)c1ccc(Nc2ccnc3ccc([N+](=O)[O-])cc23)cc1[N+](=O)[O-]` in this work. For the same molecule, the Kd ([5]; ligand monitored at 320 nm) was 0.6 ± 0.1 µM, the Kd ([6]; ligand monitored at 320 nm) was 1.1 ± 0.2 µM and the ΔTm [7] was 0 ± 0.7 °C. For the same molecule, the DC50 ([1]; poor ligand solubility) was > 20 µM, the Kd ([8]; ligand monitored at 320 nm) was 1.0 ± 0.1 µM and the Kd ([9]; ligand monitored at 320 nm) was 0.25 ± 0.1 µM. For the same molecule, the ΔTm ([10]; error ± 0.3) was 5 ± 1.0 °C.

A DC50 [1, 12] of 12 ± 3.4 µM was found for `Nc1ccc(-c2nc3nc(N)nc(N)c3nc2-c2ccc(N)cc2)cc1` in this work.

A DC50 [1, 12] of 1.5 ± 0.1 µM was found for `CCC(=O)c1ccc(O)c(O)c1` in this work.

A DC50 [1, 12] of 3.9 ± 1.0 µM was found for `Cc1c2ccncc2c(C)c2c1[nH]c1ccccc12` in this work.

A DC50 [1, 12] of 3.4 ± 0.5 µM was found for `Cc1ccc(NCCN(C)C)c2c(=O)c3cc(O)ccc3sc12` in this work.

A Kd ([2]; ligand monitored at 335 nm) of 6.0 ± 0.9 µM, a Kd ([3]; ligand monitored at 335 nm) of 8.2 ± 0.7 µM and a Kd ([4]; ligand monitored at 335 nm) of 2.4 ± 0.2 µM were found for `O=C1c2cccc3cc([N+](=O)[O-])cc(c23)C(=O)N1CCN1CCCC1` in this work. The ΔTm [11] was -1 ± 1.0 °C, the Kd ([5]; ligand monitored at 335 nm) was 6.6 ± 0.9 µM and the Kd ([6]; ligand monitored at 335 nm) was 10 ± 1.3 µM. The ΔTm [7] was 9 ± 0.8 °C, the DC50 [1, 12] was 13 ± 3.0 µM and the Kd ([8]; ligand monitored at 335 nm) was 6.2 ± 0.4 µM. The Kd ([9]; ligand monitored at 335 nm) was 20 ± 1.8 µM and the ΔTm [10] was 9 ± 0.3 °C.

A DC50 [1, 12] of 4.9 ± 1.5 µM was found for `COc1cccc2c1C(=O)c1c(O)c3c(c(O)c1C2=O)C[C@@](O)(C(C)=NO)C[C@@H]3O[C@H]1C[C@H](N)[C@H](O)[C@H](C)O1` in this work.

A DC50 [1, 12] of 2.3 ± 0.1 µM was found for `COc1cc(-c2ccc(Nc3ccccc3C(=O)O)c(OC)c2)ccc1Nc1ccccc1C(=O)O` in this work.

A DC50 [1, 12] of 6.3 ± 0.6 µM was found for `C=Cc1cc(OC)c2c(c1)c(=O)oc1c2cc(OC)c2c(O)ccc(C3OC(C)C(O)C(C)(O)C3O)c21` (stereo not drawn) in this work.

A DC50 [1, 12] of 16 ± 2.7 µM was found for `Cc1cc2nc3ccc(N(C)C)cc3[s+]c2cc1N` in this work.
